# In patent publication US11046704B2, “Derivatives of porphyrins, their process of preparation and their use for treating viral infections” (INSTITUT NATIONAL DE LA SANTE ET DE LA RECHERCHE MEDICALE …, priority 2015, dated 2021):
# pIC50: −log10 of the molar value.
# System: HIV-1
# Experiment: Viral infectivity test on HeLa P4 cells
# Assay type: cell-based
# Description: FIG. 2: Effects of G4 ligands compared with AZT on HIV-1 infectivity using the HeLa P4 cell system for studying the replication of HIV-1. The HeLa P4 cells contain a gene lacZ encoding beta-galactosidase under the control of the viral LTR and whose transcription is activated by the viral protein Tat. The cells are incubated with the ligand then infected with HIV-1. After 24 hours the activity of beta-galactosidase, which is proportional to the infectivity of the virus is then measured on a fluorescence plate reader.
# C. Cell lines and viruses: HeLa P4 cells encoding a Tat-inducible β-galactosidase were maintained in DMEM medium (Invitrogen) supplemented with 10% inactivated FCS, 1 mg/ml geneticin (G418, Gibco-BRL), gentamycin. MT4 and H9LaI cells were grown in RPMI 1640 glutamax medium (Invitrogen) supplemented with 10% inactivated FCS. HIV-1 viruses were obtained after 48 h co-culture of MT4 cells (0.5×10^6/ml) and H9Laï cells (1×10^6/ml), chronically infected by HIV-1LaI isolate, in RPMI 1640 glutamax medium supplemented with 10% inactivated FCS, at 37° C. under humidified atmosphere and […]. […]
# D. Viral infectivity test: The G4 ligands are incubated in presence of the HelaP4 cells 20 minutes before infection. […] After 24 h, the reaction was measured in a fluorescence microplate reader (Cytofluor II, Applied Biosystems) at 360/460 nm Ex/Em.
Compound,"pIC50 (24 h of infection, beta-galactosidase readout)",inhibition of viral replication
Cc1cn([C@H]2C[C@H](N=[N+]=[N-])[C@@H](CO)O2)c(=O)[nH]c1=O [AZT],7.40,
C[n+]1ccc(-c2c3nc(c(-c4cc[n+](C)cc4)c4ccc([nH]4)c(-c4cc[n+](C)cc4)c4ccc([nH]4)c(-c4cc[n+](C)cc4)c4nc2C=C4)C=C3)cc1 [Tmpyp4],,weak inhibitors of viral replication
